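Tested at 5 concentrations; 48 h exposure; 96-well plates; endpoints linearly interpolated, else capped at highest concentration. GI50 = concentration required for 50% inhibition of growth.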 The source made the active and inactive calls. Rule as the data show it: active = GI50 up to about 1.1 µM and inactive = higher.
How the values were obtained:
Test in all cases: NCI tumour cell line growth inhibition, 48 h
[1] = system: HCC 2998
[2] = system: SNB-75
[3] = system: SK-MEL-2
[4] = system: SNB-19
[5] = system: HT-29
[6] = system: NCI-H522
[7] = system: K562
[8] = system: T47D
[9] = system: HCT-15
[10] = system: Hs-578T
[11] = system: HOP-62
[12] = system: Malme-3M
[13] = system: SK-MEL-5
[14] = system: COLO 205
[15] = system: RPMI-8226
[16] = system: SK-MEL-28
[17] = system: CCRF-CEM
[18] = system: MDA-MB-435
[19] = system: NCI-H226
[20] = system: DU-145
[21] = system: TK-10
[22] = system: M14
[23] = system: MOLT-4
[24] = system: BT-549
[25] = system: SF-295
[26] = system: SF-268
[27] = system: SK-OV-3
[28] = system: 786-0
[29] = system: RXF 393
[30] = system: OVCAR-5
[31] = system: OVCAR-8
[32] = system: MDA-N
[33] = system: HOP-92
[34] = system: ACHN
[35] = system: IGROV-1
[36] = system: MCF7
[37] = system: SW-620
[38] = system: UACC-257
[39] = system: SF-539
[40] = system: LOX IMVI
[41] = system: UACC-62
[42] = system: OVCAR-3
[43] = system: MDA-MB-231
[44] = system: HCT-116
[45] = system: PC-3
[46] = system: UO-31
[47] = system: NCI-H23
[48] = system: A498
[49] = system: A549
[50] = system: EKVX
[51] = system: SN12C
[52] = system: KM12
[53] = system: U-251
[54] = system: OVCAR-4
[55] = system: NCI-H460
[56] = system: CAKI-1
[57] = system: NCI/ADR-RES
[58] = system: SR
[59] = system: HL-60

Measured: GI50

N=C(N)SCC(=O)O
> 100 µM: [9]
inactive: [1] > 100 µM | [2] > 100 µM | [3] > 100 µM | [4] > 100 µM | [5] > 100 µM | [6] > 100 µM | [7] 5.68 µM | [8] > 100 µM | [10] > 100 µM | [11] > 100 µM | [12] > 100 µM | [13] > 100 µM | [14] > 100 µM | [15] > 100 µM | [16] > 100 µM | [17] > 100 µM | [18] > 100 µM | [19] > 100 µM | [20] > 100 µM | [21] > 100 µM | [22] > 100 µM | [23] > 100 µM | [24] > 100 µM | [25] > 100 µM | [26] > 100 µM | [27] > 100 µM | [28] > 100 µM | [29] > 100 µM | [30] > 100 µM | [31] > 100 µM | [32] > 100 µM | [33] > 100 µM | [34] > 100 µM | [35] > 100 µM | [36] > 100 µM | [37] > 100 µM | [38] > 100 µM | [39] > 100 µM | [40] > 100 µM | [41] > 100 µM | [42] > 100 µM | [43] > 100 µM | [44] > 100 µM | [45] > 100 µM | [46] > 100 µM | [47] > 100 µM | [48] > 100 µM | [49] > 100 µM | [50] > 100 µM | [51] > 100 µM | [52] > 100 µM | [53] > 100 µM | [54] > 100 µM | [55] > 100 µM | [56] > 100 µM | [57] > 100 µM

CCCCCCC(O)C(=O)OC1C2C(CC1(C)C)C(O)C13OC1C(O)C1(CO1)[C@@]23C (some centres undefined)
inactive: [2] 8.83 µM | [4] 65.2 µM | [6] 61.1 µM | [7] 30.3 µM | [8] 62.5 µM | [10] 28.2 µM | [11] 58.7 µM | [12] > 100 µM | [13] 13.4 µM | [14] 49.2 µM | [15] 40.9 µM | [16] 39.3 µM | [17] 27.5 µM | [18] 50.9 µM | [20] > 100 µM | [21] 44.9 µM | [22] 40.6 µM | [23] 16.1 µM | [24] 50.1 µM | [25] 71.4 µM | [26] 20.1 µM | [27] 61.2 µM | [28] 25.4 µM | [58] 52.2 µM | [29] 23 µM | [30] > 100 µM | [31] 69.8 µM | [32] 45.4 µM | [34] > 10 µM | [35] 43 µM | [36] 36.4 µM | [38] 42.3 µM | [40] 19.2 µM | [59] > 100 µM | [41] 26 µM | [42] 32.1 µM | [43] 48.6 µM | [44] 47.4 µM | [45] 17.3 µM | [46] 66.8 µM | [47] 58.2 µM | [49] 28.1 µM | [50] 54.5 µM | [51] 54.7 µM | [52] 47.6 µM | [53] 37.1 µM | [54] 22.7 µM | [55] > 10 µM | [56] > 100 µM | [57] > 100 µM
81.7 µM: [9]

O=C1NC(N2CCCCC2)=N/C1=C\c1ccccc1
inactive: [1] > 100 µM | [2] > 100 µM | [3] > 100 µM | [4] > 100 µM | [5] > 100 µM | [6] > 100 µM | [8] > 100 µM | [10] > 100 µM | [11] > 100 µM | [12] > 100 µM | [14] > 100 µM | [15] > 100 µM | [16] > 100 µM | [17] > 100 µM | [18] > 100 µM | [19] > 100 µM | [20] > 100 µM | [21] > 100 µM | [22] > 100 µM | [23] > 100 µM | [24] > 100 µM | [25] > 100 µM | [26] > 100 µM | [27] > 100 µM | [28] > 100 µM | [58] > 100 µM | [29] > 100 µM | [30] > 100 µM | [31] > 100 µM | [32] > 100 µM | [33] > 100 µM | [34] > 100 µM | [35] > 100 µM | [36] > 100 µM | [37] > 100 µM | [38] > 100 µM | [39] > 100 µM | [40] > 100 µM | [59] > 100 µM | [41] > 100 µM | [42] > 100 µM | [43] > 100 µM | [44] > 100 µM | [45] > 100 µM | [46] > 100 µM | [47] > 100 µM | [49] > 100 µM | [50] > 100 µM | [51] > 100 µM | [52] > 100 µM | [53] > 100 µM | [54] > 100 µM | [56] > 100 µM | [57] > 100 µM
> 100 µM: [9]

COc1ccc(-c2c(C#N)c(S)n(NS(=O)(=O)c3ccccc3)c(=O)c2C#N)cc1
40.6 µM: [9]
inactive: [1] > 100 µM | [2] > 100 µM | [3] 47 µM | [4] > 100 µM | [5] 45.6 µM | [6] 26.4 µM | [7] 42.5 µM | [8] 36.1 µM | [10] 49 µM | [11] > 100 µM | [12] > 96.6 µM | [13] 36.7 µM | [14] 58.1 µM | [15] 42.8 µM | [16] > 100 µM | [17] 24.3 µM | [18] 34.3 µM | [19] > 100 µM | [20] > 100 µM | [21] 29.3 µM | [22] 58.6 µM | [23] 53.2 µM | [24] 14.3 µM | [25] 77.3 µM | [26] 62.7 µM | [27] > 100 µM | [28] 35.2 µM | [58] 23.1 µM | [29] 37.8 µM | [30] > 100 µM | [31] 48.8 µM | [32] 45.6 µM | [34] 55.7 µM | [35] 31.9 µM | [36] 59.6 µM | [37] 40.9 µM | [38] 80.9 µM | [39] 24.5 µM | [40] 35.9 µM | [59] 47.1 µM | [41] 34.5 µM | [42] 87.9 µM | [43] 88.9 µM | [44] 37.9 µM | [45] 37.7 µM | [46] 65 µM | [47] 75.2 µM | [49] 56.2 µM | [51] 46.5 µM | [52] 70.6 µM | [53] 40.4 µM | [54] 46.6 µM | [55] 48.5 µM | [56] > 72.8 µM | [57] 70.5 µM

Reference: ChEMBL document CHEMBL1201862, “PubChem BioAssay data set” (2004)
